Among the data in US20230279020A9, “CARM1 INHIBITORS AND USES THEREOF” (Epizyme, Inc., priority 2013, published 2023) are IC50 values, retold here.

Some results are limits rather than exact numbers.

For the experiment, the target named is Human CARM1 (PRMT4) (Homo sapiens (Human), UniProt Q86X55). Briefly: CARM1 enzyme assay on peptide substrate (3H-SAM Flashplate). The conditions noted are these: Biochemical potencies, classification codes; read-out: Biochem IC50.
Human CARM1 (PRMT4), sequence (Q86X55 other isoform, or with tags, fused parts or gaps isoform Q86X55-1): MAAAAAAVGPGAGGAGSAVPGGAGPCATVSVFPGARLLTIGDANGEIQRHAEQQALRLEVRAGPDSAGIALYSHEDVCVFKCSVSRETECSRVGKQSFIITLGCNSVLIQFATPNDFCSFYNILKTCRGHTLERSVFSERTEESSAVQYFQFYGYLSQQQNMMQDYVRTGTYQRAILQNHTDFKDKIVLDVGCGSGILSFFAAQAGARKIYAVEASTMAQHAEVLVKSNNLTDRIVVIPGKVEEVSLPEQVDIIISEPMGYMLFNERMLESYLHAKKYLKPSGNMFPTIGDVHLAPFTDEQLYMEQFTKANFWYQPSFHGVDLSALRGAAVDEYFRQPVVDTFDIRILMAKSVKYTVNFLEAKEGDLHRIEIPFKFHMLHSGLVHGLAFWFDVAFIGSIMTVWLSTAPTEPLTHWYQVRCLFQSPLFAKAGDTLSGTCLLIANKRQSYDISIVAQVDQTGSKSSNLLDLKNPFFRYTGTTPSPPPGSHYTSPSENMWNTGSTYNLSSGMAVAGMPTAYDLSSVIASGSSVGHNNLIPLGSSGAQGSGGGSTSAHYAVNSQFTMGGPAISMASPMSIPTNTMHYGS
For `CNCC(O)COc1cccc(-c2nc(-c3c(C)noc3C)cc(N3C[C@H]4C[C@@H]3CN4S(C)(=O)=O)n2)c1` (stereo partly shown) [Example 100-1a], the IC50 was less than 0.1 µM.

Consider `CNC[C@@H](O)COc1ccc(Cl)c(-c2nc(N[C@@H]3CCOC3)c(C)c(-c3c(C)noc3C)n2)c1` [Example 100-3], for which the IC50 is less than 0.1 µM. For `CNCC(O)COc1cccc(-c2nc(NC3(C)CCOCC3)c(C)c(-c3c(C)noc3C)n2)c1` (stereo not shown) [Example 101-1a], the IC50 is less than 0.1 µM. Then `CNC[C@@H](O)COc1ccc(Cl)c(-c2nc(N[C@@H]3CCN(C(=O)OC)[C@@H](C)C3)c(C)c(-c3c(C)noc3C)n2)c1` [Example 101-3], with less than 0.1 µM; and `CNCC(O)COc1cccc(-c2nc(NC3CCN(C(=O)OC)CC3)cc(-c3c(C)noc3C)n2)c1` (stereo not shown) [Example 102-1a], with less than 0.1 µM. As for `CNC[C@@H](O)COc1ccc(Cl)c(-c2nc(N[C@H]3CCN(C(=O)OC)[C@H](C)C3)c(C)c(-c3c(C)noc3C)n2)c1` [Example 102-3], the IC50 was less than 0.1 µM.

As for `CNCC(O)COc1cccc(-c2nc(-c3c(C)noc3C)cc(N3CCN(CCF)[C@@H](C)C3)n2)c1` (stereo partly shown) [Example 103-1a], the IC50 was less than 0.1 µM. Consider `CNC[C@H](O)COc1ccc(Cl)c(-c2nc(N[C@H]3CCN(C(=O)OC)[C@H](C)C3)c(C)c(-c3c(C)noc3C)n2)c1` [Example 103-3], for which the IC50 was less than 0.1 µM. `CNCC(O)COc1cccc(-c2nc(-c3c(C)noc3C)cc(N3CCN(CC(F)(F)F)[C@@H](C)C3)n2)c1` (stereo partly shown) [Example 104-1a]: the IC50 is less than 0.1 µM.

Take `CNC[C@@H](O)COc1ccc(Cl)c(-c2nc(NC3CCN(C(=O)OC)CC3)c(C)c(-c3c(C)noc3C)n2)c1` [Example 104-3]: the IC50 is less than 0.1 µM.

For `CCOC(=O)N1CCC(Nc2nc(-c3cc(OC[C@@H](O)CNC)ccc3Cl)nc(-c3c(C)noc3C)c2C)CC1` [Example 105-3], the IC50 is less than 0.1 µM. Turning to `CCNC(=O)N1CCN(c2nc(-c3cccc(OCC(O)CNC)c3)nc(-c3c(C)noc3C)c2C)CC1` (stereo not shown) [Example 106-1a], the IC50 was less than 0.1 µM.

With `CNC[C@H](O)COc1ccc(F)c(-c2nc(-c3c(C)noc3C)c(C)c(N3CCC4(CCN(C(=O)OC)C4)C3)n2)c1` (stereo partly shown) [Example 106-3], the IC50 was less than 0.1 µM. `CNCC(O)COc1cccc(-c2nc(-c3c(C)noc3C)c(C)c(N3CCN(C(=O)C(F)F)CC3)n2)c1` (stereo not shown) [Example 107-1a]: the IC50 is less than 0.1 µM. As for `CNCC(O)COc1cccc(-c2nc(-c3c(C)noc3C)c(C)c(N3CCN(C(=O)C4CCOCC4)CC3)n2)c1` (stereo not shown) [Example 108-1a], the IC50 was less than 0.1 µM.

Consider `CNC[C@@H](O)COc1ccc(Cl)c(-c2nc(-c3c(C)noc3C)c(C)c(N3CC4(CCN(C5CC5)CC4)C3)n2)c1` [Example 108-3], for which the IC50 was less than 0.1 µM. The figure for `CNCC(O)COc1cccc(-c2nc(-c3c(C)noc3C)cc(N3C[C@H]4C[C@@H]3CN4)n2)c1` (stereo partly shown) [Example 109-1a] is less than 0.1 µM; for `CNCC(O)COc1cccc(-c2nc(-c3c(C)noc3C)c(C)c(N3CCN4C(=O)OC[C@@H]4C3)n2)c1` (stereo partly shown) [Example 110-1a] it is less than 0.1 µM. Regarding `CNC[C@@H](O)COc1ccc(Cl)c(-c2nc(N[C@H]3C[C@@](C)(OC)C3)c(C)c(-c3c(C)noc3C)n2)c1` [Example 110-3], the IC50 is less than 0.1 µM.

Regarding `CNCC(O)COc1cccc(-c2nc(-c3c(C)noc3C)c(C)c(N3CC[C@@H](S(C)(=O)=O)C3)n2)c1` (stereo partly shown) [Example 111-1a], the IC50 is less than 0.1 µM. Regarding `CNC[C@@H](O)COc1ccc(Cl)c(-c2nc(N[C@H]3CCOC3)c(C)c(-c3c(C)noc3C)n2)c1` [Example 111-3], the half-inhibitory concentration (IC50) is less than 0.1 µM. Then `CNCC(O)COc1cccc(-c2nc(-c3c(C)noc3C)cc(-c3cnc4cnccn34)n2)c1` (stereo not shown) [Example 112-1a], with less than 0.1 µM; and `CCOC(=O)N1CC[C@@H](Nc2nc(-c3cc(OC[C@H](O)CNC)ccc3Cl)nc(-c3c(C)noc3C)c2C)C1` [Example 112-3], with less than 0.1 µM; and `CNCC(O)COc1cccc(-c2nc(NCC3(O)CCOCC3)c(C)c(-c3c(C)noc3C)n2)c1` (stereo not shown) [Example 114-1a], with less than 0.1 µM.

For `CNC[C@@H](O)COc1ccc(F)c(-c2nc(-c3c(C)noc3C)c(C)c(N3Cc4cccnc4C3)n2)c1` [Example 114-3], the half-inhibitory concentration (IC50) was less than 0.1 µM. Consider `CNCC(O)COc1cccc(-c2nc(NCC3(C)CCOCC3)c(C)c(-c3c(C)noc3C)n2)c1` (stereo not shown) [Example 115-1a], for which the IC50 was less than 0.1 µM. Turning to `CNC[C@@H](O)COc1ccc(Cl)c(-c2nc(-c3c(C)noc3C)c(C)c(N3CCC4(CC3)CN(C(=O)OC)C4)n2)c1` [Example 115-3], the IC50 is less than 0.1 µM. Regarding `CNCC(O)COc1cccc(-c2nc(-c3c(C)noc3C)c(C)c(N3C[C@H]4CC[C@@H](C3)N4C)n2)c1` (stereo partly shown) [Example 116-1a], the IC50 is less than 0.1 µM.

As for `CNC[C@@H](O)COc1ccc(Cl)c(-c2nc(OC[C@H]3CCCO3)c(C)c(-c3c(C)noc3C)n2)c1` [Example 116-3], the IC50 was less than 0.1 µM. Regarding `CNCC(O)COc1cccc(-c2nc(-c3c(C)noc3C)c(C)c(N3[C@@H]4CC[C@H]3CN(C)C4)n2)c1` (stereo partly shown) [Example 117-1a], the IC50 is less than 0.1 µM. For the compound `CNC[C@@H](O)COc1ccc(Cl)c(-c2nc(OC[C@H]3CCOC3)c(C)c(-c3c(C)noc3C)n2)c1` [Example 117-3], the IC50 is less than 0.1 µM.

Regarding `CNCC(O)COc1cccc(-c2nc(NC3CCN(C(=O)OC)CC3)c(C)c(-c3c(C)noc3C)n2)c1` (stereo not shown) [Example 118-1a], the IC50 is less than 0.1 µM. With `CNC[C@@H](O)COc1ccc(Cl)c(-c2nc(-c3c(C)noc3C)c(C)c(N3CC4(CCOCC4)C3)n2)c1` [Example 118-3], the IC50 is less than 0.1 µM.

As for `CNC[C@@H](O)COc1ccc(Cl)c(-c2nc(-c3c(C)noc3C)c(C)c(N3CC4(CCCOC4)C3)n2)c1` [Example 119-3], the IC50 was less than 0.1 µM. For `CNCC(O)COc1cccc(-c2nc(-c3c(C)noc3C)cc(N3CCN(C(=O)N(C)C)CC3)n2)c1` (stereo not shown) [Example 120-1a], the IC50 is less than 0.1 µM.

`CNC[C@@H](O)COc1ccc(Cl)c(-c2nc(-c3c(C)noc3C)c(C)c(N3CC4(CCOC4)C3)n2)c1` [Example 120-3]: the IC50 was less than 0.1 µM.

Turning to `CNCC(O)COc1cccc(-c2nc(-c3c(C)noc3C)c(C)c(N3CCN(C(=O)OCCF)CC3)n2)c1` (stereo not shown) [Example 121-1a], the IC50 is less than 0.1 µM. For the compound `CNC[C@@H](O)COc1ccc(Cl)c(-c2nc(-c3c(C)noc3C)c(C)c(N3CC4(CCCO4)C3)n2)c1` [Example 121-3], the IC50 is less than 0.1 µM. As to `CNC[C@@H](O)COc1ccc(Cl)c(-c2nc(-c3c(C)noc3C)c(C)c(N3CCc4nn(C)cc4C3)n2)c1` [Example 122-3], the IC50 was less than 0.1 µM. As for `CNCC(O)COc1cccc(-c2nc(-c3c(C)noc3C)c(C)c(N3CCO[C@H](CNC)C3)n2)c1` (stereo partly shown) [Example 124-1a], the IC50 was less than 0.1 µM.

As for `CNCC(O)COc1ccc(C)c(-c2nc(NC3CCOC(C)C3)c(C)c(-c3c(C)noc3C)n2)c1` (stereo not shown) [Example 124-3], the IC50 was less than 0.1 µM.

With `CNCC(O)COc1cccc(-c2nc(-c3c(C)noc3C)c(C)c(N3CCO[C@H](CO)C3)n2)c1` (stereo partly shown) [Example 125-1a], the IC50 is less than 0.1 µM. Take `CNCC(O)COc1ccc(C)c(-c2nc(NC3CCN(C(=O)OC)CC3)c(C)c(-c3c(C)noc3C)n2)c1` (stereo not shown) [Example 125-3]: the IC50 is less than 0.1 µM. For `CNCC(O)COc1cccc(-c2nc(-c3c(C)noc3C)c(C)c(N3CCO[C@H](CN(C)S(C)(=O)=O)C3)n2)c1` (stereo partly shown) [Example 126-1a], the IC50 is less than 0.1 µM. The figure for `CNC[C@@H](O)COc1ccc(Cl)c(-c2nc(OC[C@@H]3CCOC3)c(C)c(-c3c(C)noc3C)n2)c1` [Example 126-3] is less than 0.1 µM. For the compound `CNCC(O)COc1cccc(-c2nc(-c3c(C)noc3C)c(C)c(N3CCO[C@H](CN(C)C(=O)OC)C3)n2)c1` (stereo partly shown) [Example 127-1a], the IC50 was less than 0.1 µM. For `CNC[C@@H](O)COc1ccc(Cl)c(-c2nc(NC3CCOCC3)c(C)c(-c3c(C)noc3C)n2)c1` [Example 127-3], the IC50 was less than 0.1 µM. Then `CNC[C@@H](O)COc1ccc(Cl)c(-c2nc(N[C@H]3CCO[C@@H](C)C3)c(C)c(-c3c(C)noc3C)n2)c1` [Example 128-3], with less than 0.1 µM; and `CCOC(=O)N1CC[C@@H](Nc2nc(-c3cc(OC[C@H](O)CNC)ccc3Cl)nc(-c3c(C)noc3C)c2Cl)C1` [Example 129-3], with less than 0.1 µM; and `CNC[C@@H](O)COc1ccc(Cl)c(-c2nc(NC[C@H]3CCCO3)c(C)c(-c3c(C)noc3C)n2)c1` [Example 130-3], with less than 0.1 µM.

`CNCC(O)COc1cccc(-c2nc(-c3c(C)noc3C)cc(N3CCNC(C(F)(F)F)C3)n2)c1` (stereo not shown) [Example 131-1a]: the IC50 was less than 0.1 µM.

With `CNC[C@@H](O)COc1ccc(Cl)c(-c2nc(NC[C@@H]3CCCO3)c(C)c(-c3c(C)noc3C)n2)c1` [Example 131-3], the IC50 is less than 0.1 µM. Regarding `CNCC(O)COc1cccc(-c2nc(-c3c(C)noc3C)cc(N3CCN(CC(F)(F)F)CC3)n2)c1` (stereo not shown) [Example 132-1a], the IC50 is less than 0.1 µM. The figure for `CNC[C@@H](O)COc1ccc(Cl)c(-c2nc(N[C@@H]3CCO[C@H](C)C3)c(C)c(-c3c(C)noc3C)n2)c1` [Example 132-3] is less than 0.1 µM; for `CNCC(O)COc1cccc(-c2nc(-c3c(C)noc3C)cc(N3CCN(C(=O)C4CC4)CC3)n2)c1` (stereo not shown) [Example 133-1a] it is less than 0.1 µM.

Consider `CCOC(=O)N1CCC[C@@H]1COc1nc(-c2cc(OC[C@H](O)CNC)ccc2Cl)nc(-c2c(C)noc2C)c1C` [Example 133-3], for which the IC50 was less than 0.1 µM.

Regarding `CNCC(O)COc1cccc(-c2nc(-c3c(C)noc3C)c(C)c(N3CCN(C(=O)OCCOC)CC3)n2)c1` (stereo not shown) [Example 134-1a], the IC50 is less than 0.1 µM. The figure for `CNC[C@@H](O)COc1ccc(Cl)c(-c2nc(NC[C@H]3COCCN3C(=O)OC(C)C)c(C)c(-c3c(C)noc3C)n2)c1` [Example 134-3] is less than 0.1 µM; for `CNCC(O)COc1cccc(-c2nc(N[C@H]3CC[C@H](O)C3)c(C)c(-c3c(C)noc3C)n2)c1` (stereo partly shown) [Example 135-1a] it is less than 0.1 µM. For `CNC[C@@H](O)COc1ccc(Cl)c(-c2nc(N[C@@H]3CCN(C(=O)OC)[C@H](C)C3)c(C)c(-c3c(C)noc3C)n2)c1` [Example 135-3], the IC50 was less than 0.1 µM.

For the compound `CNCC(O)COc1cc(NC)cc(-c2nc(NC3CCOCC3)c(C)c(-c3c(C)noc3C)n2)c1` (stereo not shown) [Example 136-1a], the IC50 was less than 0.1 µM.

Broadly, the IC50 is the concentration needed to halve the response being measured.
